# Data taken from US20040127492A1 (Pharmacia Corporation, priority 2002, published 2004).
# Like-named read-outs stand apart in the source and are kept apart here.
# Assays:
# MAPKAPK2 (MK-2) = MAPKAPK2 (MK-2) (Homo sapiens, UniProt P49137); experiment: Determination of MK-2 IC50 (HSP-peptide phosphorylation, anion exchange resin capture assay); format: biochemical
# Procedure, shortened: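 Radiometric peptide assay: 15 nM p38α-activated MK-2, HSP-peptide, 0.03 mM ATP with [γ33P]ATP, 2% DMSO, pH 7.5, 30° C for 30 min; unreacted ATP removed on AG 1×8 resin before counting. Six concentrations in ten-fold steps, each in triplicate, gave IC50 in μM.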
# MK-3 = MK-3 (Homo sapiens, UniProt Q16644); experiment: MK-3 inhibition IC50 (similar method to MK-2, with appropriate modifications); format: biochemical; conditions: read-out: MK-3 Avg. IC50
# Sequence of MK-3 (Q16644 whole entry, species assumed): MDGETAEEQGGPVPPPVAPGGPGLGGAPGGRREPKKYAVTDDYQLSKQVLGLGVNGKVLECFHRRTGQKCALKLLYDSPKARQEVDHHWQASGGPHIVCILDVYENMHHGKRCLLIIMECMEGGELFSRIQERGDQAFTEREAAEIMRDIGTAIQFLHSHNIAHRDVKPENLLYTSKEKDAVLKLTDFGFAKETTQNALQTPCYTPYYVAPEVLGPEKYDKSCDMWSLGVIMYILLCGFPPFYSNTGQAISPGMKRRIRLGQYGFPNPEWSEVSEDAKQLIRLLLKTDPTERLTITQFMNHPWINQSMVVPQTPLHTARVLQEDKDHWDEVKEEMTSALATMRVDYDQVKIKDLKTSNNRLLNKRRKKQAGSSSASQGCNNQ
# endotoxin-induced shock = conditions: murine model of endotoxin-induced shock; cited from earlier work
# [1] = tested on: collagen-induced arthritis; conditions: mouse collagen-induced arthritis; cited from earlier work
# adjuvant arthritis = conditions: rat adjuvant arthritis; cited from earlier work
# granulomas = conditions: laboratory rats; cited from earlier work
# [2] = Table 1, phenoxypyrazole MK-2 inhibitors, read-out: MK-2 Avg, IC50
# [3] = Table 1, phenoxypyrazole MK-2 inhibitors
# Sequence of MAPKAPK2 (MK-2) (P49137 whole entry, species assumed): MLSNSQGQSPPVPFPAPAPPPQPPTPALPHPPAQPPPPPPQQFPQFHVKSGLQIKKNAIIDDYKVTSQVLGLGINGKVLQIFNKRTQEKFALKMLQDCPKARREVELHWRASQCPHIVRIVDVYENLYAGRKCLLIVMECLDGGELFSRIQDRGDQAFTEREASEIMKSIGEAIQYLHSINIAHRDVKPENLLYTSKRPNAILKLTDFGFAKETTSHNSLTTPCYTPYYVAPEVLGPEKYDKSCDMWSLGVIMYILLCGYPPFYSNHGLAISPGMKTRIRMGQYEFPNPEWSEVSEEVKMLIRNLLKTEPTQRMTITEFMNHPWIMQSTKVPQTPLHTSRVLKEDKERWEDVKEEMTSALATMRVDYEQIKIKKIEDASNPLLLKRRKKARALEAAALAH
IC50 (MAPKAPK2 (MK-2); [2]),IC50 (MK-3; [3]),Structure (SMILES),further results
> 200 µM,> 200 µM,COC(=O)c1nn(-c2ccc(S(N)(=O)=O)cc2)c2c1CCc1cc(OC)ccc1-2 [Example 172],
> 200 µM,> 200 µM,COc1cc2c(cc1OC)-c1n[nH]c(C(=O)O)c1CC2 [Example 173],
> 200 µM,> 200 µM,CCOC(=O)c1nn(-c2ccc(S(N)(=O)=O)cc2)c2c1CCc1cc(OC)c(OC)cc1-2 [Example 174],
> 200 µM,> 200 µM,COc1cc2c(cc1OC)-c1c(c(C(N)=O)nn1-c1ccc(S(N)(=O)=O)cc1)CC2 [Example 175],
> 200 µM,> 200 µM,CCOC(=O)c1nn(-c2ccc(S(N)(=O)=O)cc2)c2c1CCc1cc(O)ccc1-2 [Example 176],
> 200 µM,> 200 µM,COc1cc2c(cc1OC)-c1n[nH]c(C(=O)NNc3ccc(S(N)(=O)=O)cc3)c1CC2 [Example 177],
> 200 µM,> 200 µM,CCOC(=O)c1nn(-c2ccc(S(N)(=O)=O)cc2)c2c1CCc1cc(OC)ccc1-2 [Example 178],
> 200 µM,> 200 µM,COc1ccc2c(c1)CCc1c(C(N)=O)nn(-c3ccc(S(N)(=O)=O)cc3)c1-2 [Example 179],
> 200 µM,> 200 µM,COc1ccc2c(c1)CCc1c-2n[nH]c1C(=O)NN [Example 180],
> 200 µM,> 200 µM,COC(=O)c1[nH]nc2c1CCc1cc(O)ccc1-2 [Example 181],
> 200 µM,> 200 µM,COC(=O)c1[nH]nc2c1CCc1cc(OC)ccc1-2 [Example 182],
> 200 µM,> 200 µM,COC(=O)c1[nH]nc2c1CCc1cc(OC)c(Br)cc1-2 [Example 183],
> 200 µM,> 200 µM,COC(=O)c1c2c(nn1CCCNC(=O)OC(C)(C)C)-c1cc(Br)c(OC)cc1CC2 [Example 184],
> 200 µM,> 200 µM,COC(=O)c1c2c(nn1CCNC(=O)OC(C)(C)C)-c1cc(Br)c(OC)cc1CC2 [Example 185],
> 200 µM,> 200 µM,COC(=O)c1c2c(nn1CCCNC(=O)OC(C)(C)C)-c1ccc(OC)cc1CC2 [Example 186],

# More lines, now with the values behind:
Structure (SMILES),IC50 (MAPKAPK2 (MK-2); [2]),IC50 (MK-3; [3]),further results
COc1ccc(CCNCCCn2nc3c(c2C(=O)O)CCc2cnccc2-3)cc1OC [Example 100],,,IC50 (MAPKAPK2 (MK-2); read-out: MK-2 Avg. IC50): 2.33 µM; IC50 (MK-3): 48.1 µM
CCOC(=O)Cn1nc2c(c1C(=O)OCC)CCc1[nH]ncc1-2 [Example 113],,,"IC50 (MAPKAPK2 (MK-2); Table 2, pyrazolylpyrazole MK-2 inhibitors, read-out: MK-2 Avg. IC50): ≥ 200 µM; IC50 (MK-3; Table 2, pyrazolylpyrazole MK-2 inhibitors): ≥ 200 µM"
NCCCCn1nc2c(c1C(=O)O)CCc1cnccc1-2 [Example 113],,,IC50 (MAPKAPK2 (MK-2); read-out: MK-2 Avg. IC50): 3.01 µM; IC50 (MK-3): 174 µM
O=C(O)c1n[nH]c2c1CC(c1ccccc1)c1cc(O)ccc1-2 (stereo not drawn) [Example 113],> 200 µM,> 200 µM,
O=C1NCCCn2nc3c(c21)CCc1cnc(Nc2ccccc2)cc1-3 [Example 131],,,IC50 (MAPKAPK2 (MK-2); read-out: MK-2 Avg. IC50): 4.68 µM; IC50 (MK-3): 25.2 µM
CCOC(=O)c1c2c(nn1C)-c1ccc(O)cc1CC2 [Example 157],> 200 µM,> 200 µM,
O=C1NCCn2nc3c(c21)CCc1cnc(N2Cc4ccccc4C2)cc1-3 [Example 157],,,IC50 (MAPKAPK2 (MK-2); read-out: MK-2 Avg. IC50): 9.58 µM; IC50 (MK-3): 45.4 µM
COc1ccc(-n2nc(C(N)=O)c3c2-c2ccc(O)cc2CC3)cc1 [Example 158],> 200 µM,> 200 µM,
Nc1ccc(NCCCn2nc3c(c2C(=O)O)CCc2cnccc2-3)cc1 [Example 158],,,IC50 (MAPKAPK2 (MK-2); read-out: MK-2 Avg. IC50): 9.73 µM; IC50 (MK-3): 133 µM
COC(=O)c1nn(-c2ccc(Cl)cc2)c2c1CCc1cc(OC)ccc1-2 [Example 159],> 200 µM,> 200 µM,
O=C1NCCn2nc3c(c21)CCc1cnc(N2CCC(O)CC2)cc1-3 [Example 159],,,IC50 (MAPKAPK2 (MK-2); read-out: MK-2 Avg. IC50): 9.84 µM; IC50 (MK-3): 22.8 µM
COc1ccc2c(c1)CCc1c(C(=O)O)nn(-c3ccc(Cl)cc3)c1-2 [Example 160],> 200 µM,> 200 µM,
COc1ccc2c(c1)CCc1c(C(=O)NCCCN(C)C)nn(-c3ccc(Cl)cc3)c1-2 [Example 161],> 200 µM,> 200 µM,
COc1ccc(-n2nc(C(=O)O)c3c2-c2ccc(OC)cc2CC3)cc1 [Example 162],> 200 µM,> 200 µM,
COC(=O)c1nn(-c2ccc(OC)cc2)c2c1CCc1cc(OC)ccc1-2 [Example 163],> 200 µM,> 200 µM,
COC(=O)c1nn(-c2ccc(S(C)(=O)=O)cc2)c2c1CCc1cc(OC)ccc1-2 [Example 164],> 200 µM,> 200 µM,
COc1ccc2c(c1)CCc1c(C(=O)O)nn(-c3ccc(S(C)(=O)=O)cc3)c1-2 [Example 165],> 200 µM,> 200 µM,
COc1ccc2c(c1)CCc1c(C(=O)O)nn(-c3ccc(S(N)(=O)=O)cc3)c1-2 [Example 166],> 200 µM,> 200 µM,
CCOC(=O)c1[nH]nc2c1CCc1cc(OC)c(OC)cc1-2 [Example 167],> 200 µM,> 200 µM,
CCOC(=O)c1nn(-c2ccccc2)c2c1CCc1cc(OC)c(OC)cc1-2 [Example 168],> 200 µM,> 200 µM,
COc1cc2c(cc1OC)-c1n[nH]c(C(=O)n3ccnc3)c1CC2 [Example 169],> 200 µM,> 200 µM,
COc1cc2c(cc1OC)-c1n[nH]c(C(=O)NN)c1CC2 [Example 170],> 200 µM,> 200 µM,
CCN(CC)CCNC(=O)c1nn(-c2ccc(Cl)cc2)c2c1CCc1cc(OC)ccc1-2 [Example 171],> 200 µM,> 200 µM,
O=C1NCCn2nc3c(c21)CCc1cnc(-c2cccc4cccnc24)cc1-3 [Example 171],,,IC50 (MAPKAPK2 (MK-2); read-out: MK-2 Avg. IC50): 14 µM; IC50 (MK-3): 74.8 µM
O=C1NCC(CCCNCCc2ccc(Cl)cc2)n2nc3c(c21)CCc1cnccc1-3 (stereo not drawn) [Example 178],,,IC50 (MAPKAPK2 (MK-2); read-out: MK-2 Avg. IC50): 16.1 µM; IC50 (MK-3): 40.4 µM
O=C1NCCn2nc3c(c21)CCc1cnc(N2CCSCC2)cc1-3 [Example 203],,,IC50 (MAPKAPK2 (MK-2); read-out: MK-2 Avg. IC50): 35.6 µM; IC50 (MK-3): 3.3 µM
N#CC(N)CCn1nc2c(c1C(=O)O)CCc1cnccc1-2 (stereo not drawn) [Example 207],,,IC50 (MAPKAPK2 (MK-2); read-out: MK-2 Avg. IC50): 36.9 µM; IC50 (MK-3): 186 µM
CN1CCN(c2cc3c(cn2)CCc2c-3nn3c2C(=O)NCC3)CC1 [Example 245],,,IC50 (MAPKAPK2 (MK-2); read-out: MK-2 Avg. IC50): 96.8 µM; IC50 (MK-3): 108 µM
C[S+]([O-])c1ccc(-c2nc(-c3ccncc3)c(-c3ccc(F)cc3)[nH]2)cc1 (stereo not drawn) [SB203580],,,mortality (endotoxin-induced shock): reduce mortality; development of arthritis [1]: inhibit the development; development of arthritis (adjuvant arthritis): inhibit the development
Nc1nccc(-c2c(-c3ccc(F)cc3)ncn2C2CCNCC2)n1 [SB 220025],,,vascular density of granulomas (granulomas): significant dose-dependent decrease
